Source: ChEMBL document CHEMBL5518185, “Design, synthesis and antitumor activity of 4-arylamine substituted pyrimidine derivatives as noncovalent EGFR inhibitors overcoming C797S mutation” (Eur J Med Chem, 2024)
Activity calls are given as the source filed them. No cut-off for these calls is given here.

What was measured:
HCC827 [1] = test: Induction of apoptosis in human HCC827 cells assessed as late apoptotic cells at 100 nM measured after 24 hrs by annexin V/PI staining based flu cytometry analysis (reference value: 5.50%); format: functional
HCC827 [2] = test: Induction of apoptosis in human HCC827 cells assessed as necrotic cells at 10 nM measured after 24 hrs by annexin V/PI staining based flu cytometry analysis (reference value: 7.34%); format: functional
[3] = target: Tyrosine-protein kinase BTK (Homo sapiens) (UniProt Q06187); test: Inhibition of BTK (unknown origin) by HTRF assay relative to control; conditions: concentration not given here
[4] = Cytotoxicity against human 2BS cells assessed as inhibition of cell viability measured after 72 hrs by MTT assay; format: toxicity, cell-based
HCC827 [5] = test: Inhibition of colony formation in human HCC827 cells at 10 to 30 nM measured after 14 days by crystal violet staining based analysis; format: functional, cell-based; conditions: dose 10-30 nM, time 14.0 day
HCC827 [6] = test: Induction of cell cycle arrest in human HCC827 cells assessed as accumulation of cells at G2/M phase at 100 nM measured after 24 hrs by PI staining based flow cytometry analysis (reference value: 16.83%); format: functional
[7] = Toxicity in BALB/c nude mouse assessed as drug tolerability at 10 to 50 mg/kg/day, po measured every three days for 21 days; format: organism-based; conditions: in vivo, 504 h, dose 10-50 mg/kg/day, time 21 day
[8] = target: Proto-oncogene tyrosine-protein kinase Src (Homo sapiens) (UniProt P12931); test: Inhibition of Src (unknown origin) by HTRF assay relative to control; conditions: concentration not given here
[9] = Inhibition of ERK (unknown origin) by HTRF assay relative to control; conditions: Homo sapiens; concentration not given here
[10] = tested on: Epidermal growth factor receptor (Homo sapiens), P00533 [UNDEFINED MUTATION]; conditions: dose 30.0 nM
NCI-H1975 = test: Antiproliferative activity against human NCI-H1975 cells assessed as inhibition of cell growth measured after 72 hrs by MTT assay; format: functional, cell-based; conditions: NCI-H1975, 72 h
HCC827 [11] = test: Inhibition of colony formation in human HCC827 cells measured after 14 days by crystal violet staining based analysis; format: functional, cell-based; conditions: HCC827, 336 h
HCC827 [12] = test: Induction of cell cycle arrest in human HCC827 cells assessed as accumulation of cells at G0/G1 phase at 10 nM measured after 24 hrs by PI staining based flow cytometry analysis (reference value: 54.36%); format: functional
[13] = target: Epidermal growth factor receptor (Homo sapiens, UniProt P00533); conditions: dose 100.0 nM
Description: Inhibition of EGFR phosphorylation (unknown origin) at 100 nM by Western blotting analysis

[14] = tested on: Epidermal growth factor receptor (Homo sapiens), P00533 [UNDEFINED MUTATION]; conditions: dose 100.0 nM
[15] = target: RAF proto-oncogene serine/threonine-protein kinase (Homo sapiens) (UniProt P04049); test: Inhibition of c-RAF (unknown origin) by HTRF assay relative to control; conditions: concentration not given here
HCC827 [16] = test: Induction of apoptosis in human HCC827 cells assessed as early apoptotic cells at 10 nM measured after 24 hrs by annexin V/PI staining based flu cytometry analysis (reference value: 3.2%); format: functional
[17] = target: Platelet-derived growth factor receptor alpha (Homo sapiens) (UniProt P16234); test: Inhibition of PDGFR alpha (unknown origin) by HTRF assay relative to control; conditions: concentration not given here
HCC827 [18] = test: Induction of apoptosis in human HCC827 cells assessed as activation of cleaved-PARP level measured after 48 hrs by Western blot analysis; format: functional, cell-based; conditions: dose 10-400 nM
[19] = target: Serine/threonine-protein kinase mTOR (Homo sapiens) (UniProt P42345); test: Inhibition of mTOR (unknown origin) by HTRF assay relative to control; conditions: concentration not given here
HCC827 [20] = test: Induction of cell cycle arrest in human HCC827 cells assessed as accumulation of cells at G2/M phase at 30 nM measured after 24 hrs by PI staining based flow cytometry analysis (reference value: 16.83%); format: functional
HCC827 [21] = test: Induction of cell cycle arrest in human HCC827 cells assessed as accumulation of cells at G0/G1 phase at 100 nM measured after 24 hrs by PI staining based flow cytometry analysis (reference value: 54.36%); format: functional
HCC827 [22] = test: Induction of apoptosis in human HCC827 cells assessed as activation of caspase-3 level measured after 48 hrs by Western blot analysis; format: functional, cell-based; conditions: dose 10-400 nM
HCC827 [23] = test: Induction of apoptosis in human HCC827 cells assessed as activation of PARP level measured after 48 hrs by Western blot analysis; format: functional, cell-based; conditions: dose 10-400 nM
Homo sapiens = organism: Homo sapiens; test: Inhibition of AKT phosphorylation (unknown origin) at 100 nM by Western blotting analysis
HCC827 [24] = test: Induction of apoptosis in human HCC827 cells assessed as viable cells at 30 nM measured after 24 hrs by annexin V/PI staining based flu cytometry analysis (reference value: 84.0%); format: functional; conditions: read-out: Activity
HCC827 [25] = test: Inhibition of cell migration in human HCC827 cells at 10 to 100 nM measured upto 24 hrs by scratch-wound assay; format: functional, cell-based; conditions: dose 10-100 nM
[26] = target: Epidermal growth factor receptor (Homo sapiens, UniProt P00533, EX19DEL/T790M); test: Inhibition of EGFR Del19/T790M (unknown origin) preincubated for 10 mins followed by substrate addition and measured after 50 mins in presence of ATP by HTRF assay
[27] = target: Tyrosine-protein kinase ABL1 (Homo sapiens) (UniProt P00519); test: Inhibition of Abl (unknown origin) by HTRF assay relative to control; conditions: concentration not given here
HCC827 [28] = test: Induction of cell cycle arrest in human HCC827 cells assessed as accumulation of cells at S phase at 100 nM measured after 24 hrs by PI staining based flow cytometry analysis (reference value: 28.81%); format: functional
[29] = target: Insulin-like growth factor 1 receptor (Homo sapiens) (UniProt P08069); test: Inhibition of IGF-1R (unknown origin) by HTRF assay relative to control; conditions: concentration not given here
HCC827 [30] = test: Induction of apoptosis in human HCC827 cells assessed as activation of cleaved-caspase-3 level measured after 48 hrs by Western blot analysis; format: functional, cell-based; conditions: dose 10-400 nM
[31] = target: Epidermal growth factor receptor (Homo sapiens, UniProt P00533, L858R/T790M); test: Inhibition of EGFR L858R/T790M (unknown origin) preincubated for 10 mins followed by substrate addition and measured after 50 mins in presence of ATP by HTRF assay
[32] = Toxicity in BALB/c nude mouse assessed as animal death at 10 to 50 mg/kg/day, po measured every three days for 21 days; format: organism-based; conditions: in vivo, 504 h, dose 10-50 mg/kg/day, time 21 day
HCC827 [33] = test: Induction of apoptosis in human HCC827 cells assessed as necrotic cells at 100 nM measured after 24 hrs by annexin V/PI staining based flu cytometry analysis (reference value: 7.34%); format: functional
HCC827 [34] = test: Induction of cell cycle arrest in human HCC827 cells assessed as accumulation of cells at S phase at 10 nM measured after 24 hrs by PI staining based flow cytometry analysis (reference value: 28.81%); format: functional

Epidermal growth factor receptor (Homo sapiens), P00533 [UNDEFINED MUTATION], sequence (P00533 whole entry, looked up, stated change not applied): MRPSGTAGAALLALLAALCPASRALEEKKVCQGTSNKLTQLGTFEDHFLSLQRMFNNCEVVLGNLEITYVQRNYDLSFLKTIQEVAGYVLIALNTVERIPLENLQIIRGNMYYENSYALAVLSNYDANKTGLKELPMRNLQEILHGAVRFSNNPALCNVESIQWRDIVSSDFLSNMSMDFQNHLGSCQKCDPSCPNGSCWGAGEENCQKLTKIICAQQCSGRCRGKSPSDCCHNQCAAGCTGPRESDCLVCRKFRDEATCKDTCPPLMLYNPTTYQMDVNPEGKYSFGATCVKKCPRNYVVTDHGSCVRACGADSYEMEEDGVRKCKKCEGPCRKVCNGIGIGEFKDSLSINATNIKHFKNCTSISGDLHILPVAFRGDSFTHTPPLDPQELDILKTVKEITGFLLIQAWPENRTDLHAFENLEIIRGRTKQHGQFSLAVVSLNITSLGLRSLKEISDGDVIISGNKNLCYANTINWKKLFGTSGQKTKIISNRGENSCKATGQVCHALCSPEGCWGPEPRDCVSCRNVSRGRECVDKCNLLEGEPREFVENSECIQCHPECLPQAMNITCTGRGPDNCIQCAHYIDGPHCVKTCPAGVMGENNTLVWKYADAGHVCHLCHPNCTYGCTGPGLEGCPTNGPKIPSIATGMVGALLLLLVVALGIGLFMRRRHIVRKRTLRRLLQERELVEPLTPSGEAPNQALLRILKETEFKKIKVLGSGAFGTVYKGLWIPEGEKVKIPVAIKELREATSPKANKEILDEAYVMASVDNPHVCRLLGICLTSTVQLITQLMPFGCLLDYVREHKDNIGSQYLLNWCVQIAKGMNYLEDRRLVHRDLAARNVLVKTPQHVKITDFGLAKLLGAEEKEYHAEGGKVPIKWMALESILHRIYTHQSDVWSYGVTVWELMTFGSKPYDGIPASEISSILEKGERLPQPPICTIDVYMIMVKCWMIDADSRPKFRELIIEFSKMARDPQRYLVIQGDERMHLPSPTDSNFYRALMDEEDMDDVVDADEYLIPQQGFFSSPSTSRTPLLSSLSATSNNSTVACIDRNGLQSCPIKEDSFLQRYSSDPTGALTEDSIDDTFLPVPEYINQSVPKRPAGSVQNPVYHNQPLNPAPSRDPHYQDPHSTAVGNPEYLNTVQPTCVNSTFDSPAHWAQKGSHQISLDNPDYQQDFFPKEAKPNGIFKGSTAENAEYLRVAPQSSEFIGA
Epidermal growth factor receptor (Homo sapiens, UniProt P00533, EX19DEL/T790M), sequence (P00533 whole entry, looked up, stated change not applied): as above
Epidermal growth factor receptor (Homo sapiens, UniProt P00533), sequence (P00533 whole entry): as the sequence (P00533 whole entry, looked up, stated change not applied) above
Tyrosine-protein kinase ABL1 (Homo sapiens), sequence (P00519 whole entry): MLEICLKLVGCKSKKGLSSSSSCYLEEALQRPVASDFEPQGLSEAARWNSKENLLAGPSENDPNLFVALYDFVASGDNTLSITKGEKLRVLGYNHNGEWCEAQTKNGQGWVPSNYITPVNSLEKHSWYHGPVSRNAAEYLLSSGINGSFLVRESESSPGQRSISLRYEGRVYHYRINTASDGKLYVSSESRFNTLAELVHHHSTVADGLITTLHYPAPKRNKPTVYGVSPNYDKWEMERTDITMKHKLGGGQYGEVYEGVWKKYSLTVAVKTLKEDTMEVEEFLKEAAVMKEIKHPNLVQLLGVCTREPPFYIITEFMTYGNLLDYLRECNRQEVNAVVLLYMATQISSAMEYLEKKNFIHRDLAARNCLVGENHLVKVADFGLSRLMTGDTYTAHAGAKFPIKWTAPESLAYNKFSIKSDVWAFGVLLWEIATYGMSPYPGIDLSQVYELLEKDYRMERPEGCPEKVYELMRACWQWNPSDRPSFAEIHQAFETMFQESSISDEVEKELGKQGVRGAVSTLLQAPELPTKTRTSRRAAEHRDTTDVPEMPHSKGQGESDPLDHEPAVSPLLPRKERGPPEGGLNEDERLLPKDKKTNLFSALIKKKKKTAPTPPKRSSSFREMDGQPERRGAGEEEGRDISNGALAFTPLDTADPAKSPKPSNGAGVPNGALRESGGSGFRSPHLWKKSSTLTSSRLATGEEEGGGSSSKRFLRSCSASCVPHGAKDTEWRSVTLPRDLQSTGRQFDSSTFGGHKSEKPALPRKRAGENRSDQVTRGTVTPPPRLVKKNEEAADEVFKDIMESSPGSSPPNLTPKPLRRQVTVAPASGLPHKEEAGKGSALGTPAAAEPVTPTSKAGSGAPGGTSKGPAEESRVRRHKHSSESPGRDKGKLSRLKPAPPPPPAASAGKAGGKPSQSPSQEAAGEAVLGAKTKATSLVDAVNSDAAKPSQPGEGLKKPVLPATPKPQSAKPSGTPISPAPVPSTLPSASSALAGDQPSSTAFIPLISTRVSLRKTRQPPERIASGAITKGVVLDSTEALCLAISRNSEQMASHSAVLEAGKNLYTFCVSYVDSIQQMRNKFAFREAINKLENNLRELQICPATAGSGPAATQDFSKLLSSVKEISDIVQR

Molecule `O=C(NO)c1sccc1Nc1nc(Nc2ccc(N3CCOCC3)cc2)ncc1Cl` has an Activity (HCC827 [1]) of 14.3%, an Activity (HCC827 [2]) of 6.5% and an inhibition [3] of less than 70%. For the same molecule, the IC50 at 72 h [4] was 24600 nM, the inhibition (HCC827 [5]) was “Active” and the Activity (HCC827 [6]) was 46.13%. The Activity [7] was “Non-Toxic”, the inhibition [8] was less than 70% and the inhibition [9] was less than 70%. For the same molecule, the inhibition [10] was 61.9%, the IC50 (NCI-H1975) was 168 nM and the IC50 (HCC827 [11]) was 24.6 nM. The Activity (HCC827 [12]) was 66.03%, the inhibition [13] was “Active” and the inhibition [14] was 88.6%. The inhibition [15] was less than 70%, the Activity (HCC827 [16]) was 9.96% and the inhibition [17] was less than 70%. For the same molecule, the Activity (HCC827 [18]) was “Dose-Dependent Effect”, the inhibition [19] was less than 70% and the Activity (HCC827 [20]) was 19.06%. The Activity (HCC827 [21]) was 44.23%, the Activity (HCC827 [22]) was “Dose-Dependent Effect” and the Activity (HCC827 [23]) was “Dose-Dependent Effect”. The inhibition (Homo sapiens) was “Active”, the viability at 0.03 µM (HCC827 [24]) was 70.7% and the inhibition (HCC827 [25]) was “Active”. The IC50 [26] was 214 nM, the inhibition [27] was less than 70% and the Activity (HCC827 [28]) was 9.64%. For the same molecule, the inhibition [29] was less than 70%, the Activity (HCC827 [30]) was “Dose-Dependent Effect” and the IC50 [31] was 43.9 nM. The Activity [32] was “Non-Toxic”, the Activity (HCC827 [33]) was 6.32% and the Activity (HCC827 [34]) was 16.41%.
